Read-outs that look alike come from different tables or passages of the source.
How the values were obtained:
[1] = target: T1, STAT3 (Mus musculus, UniProt P42227); test: Inhibition of STAT3 dimerization, EMSA assay; type: binding; parameters: nuclear extracts were pre-incubated with compound for 30 minutes at room temperature prior to incubation with the radiolabeled probe; endogenous in cells; host or cells: nuclear extracts per the general EMSA method
[2] = target: T1, STAT3; test: Inhibition of STAT3 dimerization, EMSA assay; type: binding; parameters: endogenous in cells; host or cells: nuclear extracts per the general EMSA method

T1 sequence (P42227 2-770 limits assumed): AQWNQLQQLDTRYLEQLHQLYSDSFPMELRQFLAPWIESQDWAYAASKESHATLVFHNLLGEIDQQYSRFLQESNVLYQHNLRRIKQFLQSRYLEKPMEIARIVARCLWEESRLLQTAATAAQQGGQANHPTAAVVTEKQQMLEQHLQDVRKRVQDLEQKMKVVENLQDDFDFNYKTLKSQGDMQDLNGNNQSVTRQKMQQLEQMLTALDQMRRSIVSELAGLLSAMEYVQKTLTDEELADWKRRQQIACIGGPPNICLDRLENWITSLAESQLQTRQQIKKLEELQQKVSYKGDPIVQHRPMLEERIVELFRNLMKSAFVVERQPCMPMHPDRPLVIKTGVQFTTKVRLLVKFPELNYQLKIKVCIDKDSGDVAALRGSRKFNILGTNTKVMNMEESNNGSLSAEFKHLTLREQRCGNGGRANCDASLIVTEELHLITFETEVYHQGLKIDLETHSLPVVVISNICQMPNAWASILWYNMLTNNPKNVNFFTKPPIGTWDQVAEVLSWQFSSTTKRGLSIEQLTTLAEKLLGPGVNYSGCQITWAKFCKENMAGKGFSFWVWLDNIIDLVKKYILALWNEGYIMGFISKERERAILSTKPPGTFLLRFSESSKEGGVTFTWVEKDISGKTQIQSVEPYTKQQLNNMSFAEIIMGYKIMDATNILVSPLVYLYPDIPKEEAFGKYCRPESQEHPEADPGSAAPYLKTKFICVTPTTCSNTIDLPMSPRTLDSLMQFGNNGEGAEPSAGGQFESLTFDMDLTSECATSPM

| Structure (SMILES) | IC50 [1] [µM] | melting point [°C] | IC50 [2] [µM] |
| --- | --- | --- | --- |
| O=C(COS(=O)(=O)c1ccc(-c2ccccc2)cc1)Nc1ccc(C(=O)O)c(O)c1 [Compound 19] | > 500 |  |  |
| O=C(CNS(=O)(=O)c1ccc(-c2ccccc2)cc1)Nc1ccc(C(=O)O)c(O)c1 [Compound 21] | > 500 |  |  |
| CCOC(=O)c1ccc(NC(=O)CC(CNS(=O)(=O)c2ccc(Oc3ccccc3)cc2)c2ccc(Cl)cc2)cc1 (stereo not drawn) [Compound 37] | > 500 |  |  |
| CCOC(=O)c1ccc(NC(=O)CC(CNS(=O)(=O)c2ccc(C)cc2)c2ccc(Cl)cc2)cc1 (stereo not drawn) [Compound 38, Ethyl 4-(3-(4-chlorophenyl)-4-(4-methylphenylsulfonamido)butanamido)benzoate] |  | 187 to 189 |  |
| CCOC(=O)c1ccc(NC(=O)CC(CNS(=O)(=O)c2ccc(Oc3ccccc3)cc2)c2ccccc2)cc1 (stereo not drawn) [Compound 56, Ethyl 4-(4-(4-phenoxyphenylsulfonamido)-3-phenylbutanamido)benzoate] |  | 147 to 149 |  |

Second part, the compound after the results:

| IC50 [1] [µM] | melting point [°C] | IC50 [2] [µM] | Structure (SMILES) |
| --- | --- | --- | --- |
|  | 141 to 143 |  | CCOC(=O)c1ccc(NC(=O)CC(CNS(=O)(=O)c2ccc(Oc3ccccc3)cc2)c2ccc3ccccc3c2)cc1 (stereo not drawn) [Compound 58, Ethyl 4-(3-(naphthalen-2-yl)-4-(4-phenoxyphenylsulfonamido)butanamido)benzoate] |
|  | 187 to 189 | > 500 | O=C(CC(CNS(=O)(=O)c1ccc(Oc2ccccc2)cc1)c1ccccc1)Nc1ccc(C(=O)O)cc1 (stereo not drawn) [Compound 60, 4-(4-(4-phenoxyphenylsulfonamido)-3-phenylbutanamido)benzoic acid] |
|  | 183 to 184 |  | O=C(CC(CNS(=O)(=O)c1ccc(Oc2ccccc2)cc1)c1ccc2ccccc2c1)Nc1ccc(C(=O)O)cc1 (stereo not drawn) [Compound 61, 4-(3-(naphthalen-2-yl)-4-(4-phenoxyphenylsulfonamido)butanamido)benzoic acid] |
|  | 153 to 155 | > 500 | O=C(CC(CNS(=O)(=O)c1ccc(Oc2ccccc2)cc1)c1ccc2ccccc2c1)Nc1ccc(C(=O)O)c(O)c1 (stereo not drawn) [Compound 65, 2-hydroxy-4-(3-(naphthalen-2-yl)-4-(4-phenoxyphenylsulfonamido)butanamido)benzoic acid] |
|  | 109 to 111 | > 500 | CCOC(=O)c1ccc(NC(=O)CCc2ccccc2)cc1 [Compound 70, Ethyl 4-(3-phenylpropanamido)benzoate] |
|  | 255 to 257 | > 500 | O=C(CCc1ccc2ccccc2c1)Nc1ccc(C(=O)O)cc1 [Compound 71, 4-(3-(Naphthalen-2-yl)propanamido)benzoic acid] |

— patent US9604923B2 (H. LEE MOFFITT CANCER CENTER AND RESEARCH INSTITUTE, INC., priority 2006, dated 2017)
